Test results: PMC6717000 (Biosensors & bioelectronics, 2019)

Test system: Acid phosphatase from potato (AcP)
Test: phenolCEST MRI of released phenol, initial velocity over […] min
Format: biochemical, Solanum tuberosum
Conditions: pH 5.0, 37 °C, 10 mM acetate buffer, 10 mM Mg2+

O=P(O)(O)Oc1ccccc1 [PP, phenyl phosphate]
Km: 3.5 mM
